Reference: US7700553B2, “Selective inhibition of NF-κB activation by peptides designed to disrupt nemo oligomerization” (priority 2003, dated 2010)
Ends that are not written are not given here. BODIPY = not defined here

Columns and labels:
[1] = tested on: LPS-induced NF-κB activation in 70Z/3-C3 cells; assay: NF-κB inhibition assay, second more stringent procedure (peptide washed out, 24 h growth before LPS); assay type: cell-based, murine; details: 10 μM peptide
Text: FIG. 4: Specific Inhibition of NF-κB Activation in Response to LPS Depends on a Few Mutations in the Hydrophobic Core of CC2 and LZ Coiled-Coils Left panels show a helical wheel diagram of CC2 (A) and LZ (B) peptides. The view is from the top the molecule. The (a) through (g) positions, which are an essential feature of coiled coil sequence (Vinson, 2002, Mol. Cell. Biol.) represent sequential positions in each peptide sequence. The first (a) and fourth (d) positions that are generally occupied by hydrophobic amino acids constitute the hydrophobic core for parallel as well as antiparallel-coiled coils. […] NF-κB activity was measured using the β-galactosidase assay. […]
FIG. 5: Inhibition of NF-κB Activation by the LZ Peptide Occurs Through the Formation of Specific Coiled-Coil Strands. […] NF-κB activity was measured using the β-galactosidase assay. […]

[2] = tested on: LPS-induced NF-κB activation in 70Z/3-C3 cells; assay: NF-κB inhibition assay, first procedure (NF-κB dependent β-galactosidase reporter, LPS stimulation); assay type: cell-based, murine; details: 20 μM peptide; for effect on LPS-induced NF-κB activation (in words): 2 h, then 5 h LPS
Experimental: The resulting cell line, 70Z3-C3, was incubated for 2 hours in the absence or in the presence of 20 μM of antennapedia peptide (Ant), or BODIPY-labeled antennapedia peptide (BODIPY-Ant), or BODIPY-labeled antennapedia peptide coupled to CC2 (BODIPY-Ant-CC2) or LZ (BODIPY-Ant-LZ) peptides, After peptide internalization, cells were treated for 5 hours with LPS (3 μg/ml, (+) in left panel) or untreated (right panel and (−) in left panel) and the NF-κB activity was measured by β-galactosidase assay. […] Cells were treated as in (A) but with different concentration of peptide as indicated. The potential of each peptide to inhibit LPS-induced NF-κB activation was measured by determining the IC50 value that correspond to 50% inhibition of LPS-induced NF-κB activation as compared to the control (no peptide) (C). […] Control (no peptide) or CC2, or LZ peptides, with (BODIPY-ANT-CC2, BODIPY-ANT-LZ) or without the antennapedia sequence at the N-terminus (CC2, LZ) were incubated for 2 hours with 70Z3-C3 cells followed with (+) or without (−) the LPS-treatment for 3 hours. NF-κB activity was then measured by β-galactosidase assay.
In a first procedure 2.2×10^5 70Z/3-C3 cells in 220 μl of RPMI 1640 supplemented with 10% fetal calf serum (FCS) and 50 μM β-mercaptoethanol were placed in a 96-well plate and incubated with various concentrations of peptide (0 to 20 μM) at 37° C. in 5% CO2 incubator. After two hours an equal portion (100 μl) of each cell sample transferred in two wells containing each 10^5 cells. One aliquot of cells was then treated for 5 hours with lipopolysaccharides from Salmonella abortus (Sigma) at 0.5 μg/ml final concentration, and the other one left-treated. After 5 hours, cells were centrifuged at 400×g for 5 min at room temperature and the cell pellets were washed three times with cold PBS (250 μl) by centrifugation. Cells were then lysed in the lysis buffer (25 mM tris-phosphate buffer at pH 7.8 containing 8 mM magnesium chloride, 1 mM dithioerythreitol, 1% Triton X-100, 15% glycerol and a protease inhibitor mixture (Roche)), and samples were centrifuged at 4° C. for 20 min to clarify the lysate. The supernatant was then kept on ice, and 30 μl was then assayed to measure the β-galactosidase activity with a plate luminometer (Berthold) using the galacton-star as chemiluminescent substrate (BD Biosciences Clontech, Bronstein et al., 1989). Background of reaction was measured by mixing for 1 hour 30 μl of lysis buffer with the reaction buffer (196 μl) and the galacton-star substrate (4 μl) provided by BD Biosciences.

[3] = target: T1, CC2 peptide composing the minimal oligomerization domain of NEMO (Mus musculus, UniProt O88522); assay: Fluorescence anisotropy titration with CC2 peptide; assay type: binding, murine; details: in vitro, fluorescence polarization
T1 construct: SKGMQLEDLRQQLQQAEEA; made in house; host or cells: chemical solid-phase peptide synthesis (Fmoc/tBu), not expressed
T1 sequence (O88522 248-287): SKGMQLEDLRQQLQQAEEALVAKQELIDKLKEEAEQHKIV
Experimental: FIG. 7: Association of Ant-CC2 and Ant-LZ Peptides to the CC2 Peptide (A) Direct titration of BODIPY-Ant-CC2 (1 μM) with CC2 by fluorescence anitropy. The concentration of CC2 was determined by amino acid analysis. Anisotropy values of BODIPY-Ant-CC2 in milliunits (mA) were plotted against an increasing concentration of the CC2 peptide. […] The two dashed lines represent a stoichiometric titration and intersect at an CC2 concentration of […]. Given the 1 μM concentration of the BODIPY-Ant-CC2, this gives a complex stoechiometrie of 0.8. (B) Direct titration of BODIPY-Ant-LZ (0.1 μM with CC2 by fluorescence anitropy. The anisotropy values of the BODIPY-Ant-LZ alone (white bar) or in the presence of the CC2 peptide (30 μM, grey bar; 100 μM, black bar) are given in milliunits (mA).
Anisotropy measurements were performed with a PTI Quantamaster fluorometer equipped with polarizers for the excitation and emission beams. This instrument uses a PMT in the L-configuration. […] Steady-state fluorescence anisotropy was expressed as millianisotropy (mA) and was calculated according to the equations: (1) A=(IVV−GIVH)/(IVV+2GIVH); (2) G=IHV/IHH; where A is anisotropy, G is a correction factor for wavelength-dependent distortion and I is the fluorescence intensity component (subscript referring to the vertical and horizontal positioning at the excitation and emission polarizers, respectively). […]

B-CRQIKIWFQNRRMKWKKLKAQADIYKADFQAERHAREKLVEKKEYSQEQLEQSQREFNKL (C(BODIPY)RQIKIWFQNRRMKWKKLKAQADIYKADFQAERHAREKLVEKKEYSQEQLEQSQREFNKL-NH2; not fully specified (N-terminus); printed as B-CRQIKIWFQNRRMKWKKLKAQADIYKADFQAERHAREKLVEKKEYSQEQLEQSQREFNKL; reading uncertain) [BODIPY-Ant-LZ (Mu)]
inhibition of LPS-induced NF-κB activation compared to the control [1]: 15%

B-CRQIKIWFQNRRMKWKKSKGMQLEDLRQQGQQAEEAGVAKQELGDKLKEEAEQHKIV (C(BODIPY)RQIKIWFQNRRMKWKKSKGMQLEDLRQQGQQAEEAGVAKQELGDKLKEEAEQHKIV-NH2; not fully specified (N-terminus); printed as B-CRQIKIWFQNRRMKWKKSKGMQLEDLRQQGQQAEEAGVAKQELGDKLKEEAEQHKIV; reading uncertain) [BODIPY-Ant-CC2 (Mu)]
effect on LPS-induced NF-κB activation (in words) [1]: did not affect the NF-κB activation

B-CRQIKIWFQNRRMKWKKLKAQADIYKADFQAERHAREKLVEKKEYLQEQLEQLQREFNKL (C(BODIPY)RQIKIWFQNRRMKWKKLKAQADIYKADFQAERHAREKLVEKKEYLQEQLEQLQREFNKL-NH2; not fully specified (N-terminus); reading uncertain) [BODIPY-Ant-LZ (WT)]
effect on LPS-induced NF-κB activation (in words) [2]: decreased significantly the NF-κB activation
effect on LPS-induced NF-κB activation (in words) ([2]; listed as “Leucine zipper” peptide): completely eliminates cell response
basal NF-κB activity in the absence of LPS (in words) ([2]; no LPS): without affecting the intrinsic basal NF-κB activity
binding to the CC2 peptide (in words) [3]: binds in vitro to the CC2 peptide
